Reference: PubChem BioAssay AID330 (DTP/NCI, 2004)
“And” between values parts separate entries of the source, which are not always exact repeats. Equal values may be shown once. Toxic doses and inconclusive results are not listed.

Test system: P388 leukemia ip, CD2F1 mice, survival T/C
Experiment: NCI In Vivo Anticancer Drug Screen. Data for tumor model P388 Leukemia (intraperitoneal) in CD2F1 (CDF1) mice
Conditions: endpoint: median survival time, higher = longer survival
How it was run: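 Mice carrying the transplanted tumor received test compound or vehicle. Survival was recorded in each group, and the value is the treated-group measurement divided by that of the vehicle-treated control group.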

[1] = dose: 200.0 mg/kg/injection, schedule: Q01DX009 (ip), vehicle: saline
[2] = dose: 25.0 mg/kg/injection, schedule: Q01DX009 (ip), vehicle: saline with Tween-80
[3] = dose: 50.0 mg/kg/injection, schedule: Q01DX009 (ip), vehicle: saline with Tween-80
[4] = dose: 100.0 mg/kg/injection, schedule: Q01DX009 (ip), vehicle: saline with Tween-80
[5] = dose: 200.0 mg/kg/injection, schedule: Q01DX009 (ip), vehicle: saline with Tween-80
[6] = dose: 50.0 mg/kg/injection, schedule: Q01DX009 (ip), vehicle: saline
[7] = dose: 100.0 mg/kg/injection, schedule: Q01DX009 (ip), vehicle: saline
[8] = dose: 12.5 mg/kg/injection, schedule: Q01DX005 (ip), vehicle: saline with Tween-80
[9] = dose: 25.0 mg/kg/injection, schedule: Q01DX005 (ip), vehicle: saline with Tween-80
[10] = dose: 50.0 mg/kg/injection, schedule: Q01DX005 (ip), vehicle: saline
[11] = dose: 50.0 mg/kg/injection, schedule: Q01DX005 (ip), vehicle: saline with Tween-80

SMILES: CN(C)CC(Cl)CCl (stereo unspecified)
- T/C (dose: 50.0 mg/kg/injection, schedule: Q04DX003 (ip), vehicle: saline): 109 % of control
- T/C (dose: 100.0 mg/kg/injection, schedule: Q04DX003 (ip), vehicle: saline): 109 % of control
- T/C [1]: 195 % of control

SMILES: CC(=O)Nc1cscc1NC(C)=O
- T/C [2]: 101 % of control
- T/C [3]: 94 % of control
- T/C [4]: 100 % of control
- T/C [5]: 101 % of control

SMILES: COc1c2occc2c(NC(=O)C(Cl)(Cl)Cl)c2ccc(=O)oc12
- T/C (dose: 5.0 mg/kg/injection, schedule: Q04DX002 (ip), vehicle: saline with Tween-80): 102 % of control
- T/C (dose: 10.0 mg/kg/injection, schedule: Q04DX002 (ip), vehicle: saline with Tween-80): 101 % of control
- T/C (dose: 20.0 mg/kg/injection, schedule: Q04DX002 (ip), vehicle: saline with Tween-80): 102 % of control

SMILES: Cc1c2cc3c(cc2cc2c4cc5c(cc4cc[n+]12)OCO5)OCO3 (tested in a mixture with another compound)
- T/C (dose: 0.44 mg/kg/injection, schedule: Q04DX003 (ip), vehicle: saline): 122 % of control
- T/C (dose: 5.0 mg/kg/injection, schedule: Q04DX003 (ip), vehicle: saline): 154 % of control
- T/C (dose: 7.5 mg/kg/injection, schedule: Q04DX003 (ip), vehicle: saline): 150 % of control

SMILES: COc1cc(N=Nc2ccc([N+](=O)[O-])cc2)c([OH+]C)cc1[N+]#N.COc1cc(N=Nc2ccc([N+](=O)[O-])cc2)c([OH+]C)cc1[N+]#N.[Cl][Zn][Cl]
- T/C [6]: 110 % of control and 112 % of control and 117 % of control
- T/C [7]: 111 % of control and 117 % of control and 119 % of control
- T/C [1]: 116 % of control and 119 % of control
- T/C (dose: 400.0 mg/kg/injection, schedule: Q01DX009 (ip), vehicle: saline): 107 % of control

SMILES: O=c1[nH]/c(=C/c2ccc(CO)o2)c(=O)[nH]/c1=C\c1ccc(CO)o1
- T/C (dose: 12.5 mg/kg/injection, schedule: Q01DX009 (ip), vehicle: distilled water + Tween-80): 90 % of control
- T/C (dose: 25.0 mg/kg/injection, schedule: Q01DX009 (ip), vehicle: distilled water + Tween-80): 89 % of control
- T/C (dose: 50.0 mg/kg/injection, schedule: Q01DX009 (ip), vehicle: distilled water + Tween-80): 87 % of control
- T/C (dose: 100.0 mg/kg/injection, schedule: Q01DX009 (ip), vehicle: distilled water + Tween-80): 87 % of control
- T/C (dose: 200.0 mg/kg/injection, schedule: Q01DX009 (ip), vehicle: distilled water + Tween-80): 90 % of control

SMILES: O=S(=O)(OC(=C(c1ccccc1)c1ccccc1)c1ccccc1)C(F)(F)F
- T/C (dose: 50.0 mg/kg/injection, schedule: Q01DX009 (ip), vehicle: olive oil, sesame oil, peanut oil): 99 % of control
- T/C (dose: 100.0 mg/kg/injection, schedule: Q01DX009 (ip), vehicle: olive oil, sesame oil, peanut oil): 107 % of control
- T/C (dose: 200.0 mg/kg/injection, schedule: Q01DX009 (ip), vehicle: olive oil, sesame oil, peanut oil): 112 % of control

SMILES: O=C(O)CC(NC(=O)OCc1ccccc1)C(=O)OCc1ccccc1 (stereo unspecified)
- T/C [3]: 100 % of control
- T/C [4]: 104 % of control
- T/C [5]: 104 % of control

SMILES: CCC1(CCC(=O)OC)CCC[N+]2=C1c1[nH]c3ccc(Br)cc3c1CC2 (stereo unspecified)
- T/C (dose: 6.25 mg/kg/injection, schedule: Q01DX005 (ip), vehicle: saline with Tween-80): 97 % of control
- T/C [8]: 100 % of control
- T/C [9]: 94 % of control
- T/C [10]: 86 % of control

SMILES: CCCCCCCCCCCC(O)CCCC(O)CC(O)CC(O)CC1CC=CC(=O)O1 (stereo unspecified)
- T/C (dose: 12.5 mg/kg/injection, schedule: Q01DX009 (ip), vehicle: Klucel (hydroxypropylcellulose) (HPC)): 106 % of control
- T/C (dose: 25.0 mg/kg/injection, schedule: Q01DX009 (ip), vehicle: Klucel (hydroxypropylcellulose) (HPC)): 103 % of control
- T/C (dose: 50.0 mg/kg/injection, schedule: Q01DX009 (ip), vehicle: Klucel (hydroxypropylcellulose) (HPC)): 112 % of control

SMILES: O=CC(O)C(O)C1[O][Sb][O]C1CO (stereo unspecified)
- T/C [10]: 99 % of control
- T/C (dose: 100.0 mg/kg/injection, schedule: Q01DX005 (ip), vehicle: saline): 100 % of control
- T/C (dose: 200.0 mg/kg/injection, schedule: Q01DX005 (ip), vehicle: saline): 103 % of control

SMILES: ClC(c1ccccc1)C1(Cl)C=c2ccccc2=C1 (stereo unspecified)
- T/C (dose: 100.0 mg/kg/injection, schedule: Q01DX009 (ip), vehicle: Klucel (hydroxypropylcellulose) (HPC)): 109 % of control
- T/C (dose: 100.0 mg/kg/injection, schedule: Q04DX003 (ip), vehicle: Klucel (hydroxypropylcellulose) (HPC)): 100 % of control
- T/C (dose: 200.0 mg/kg/injection, schedule: Q01DX009 (ip), vehicle: Klucel (hydroxypropylcellulose) (HPC)): 109 % of control
- T/C (dose: 200.0 mg/kg/injection, schedule: Q04DX003 (ip), vehicle: Klucel (hydroxypropylcellulose) (HPC)): 104 % of control
- T/C (dose: 400.0 mg/kg/injection, schedule: Q01DX009 (ip), vehicle: Klucel (hydroxypropylcellulose) (HPC)): 113 % of control
- T/C (dose: 400.0 mg/kg/injection, schedule: Q04DX003 (ip), vehicle: Klucel (hydroxypropylcellulose) (HPC)): 109 % of control

SMILES: CC(C(=O)O)c1ccc2c(c1)[nH]c1ccc(Cl)cc12 (stereo unspecified)
- T/C (dose: 6.25 mg/kg/injection, schedule: Q01DX009 (ip), vehicle: saline with Tween-80): 106 % of control
- T/C (dose: 12.5 mg/kg/injection, schedule: Q01DX009 (ip), vehicle: saline with Tween-80): 106 % of control
- T/C [2]: 105 % of control

SMILES: CCOC(=O)Nc1ccc2nc(Sc3ccc(C)cc3)sc2c1
- T/C [3]: 99 % of control
- T/C [4]: 110 % of control
- T/C [5]: 119 % of control

SMILES: COc1ccc2cc(C(=O)c3cc4ccc(OC)cc4oc3=O)c(=O)oc2c1
- T/C (dose: 60.0 mg/kg/injection, schedule: Q01DX005 (ip), vehicle: saline with Tween-80): 104 % of control
- T/C (dose: 120.0 mg/kg/injection, schedule: Q01DX005 (ip), vehicle: saline with Tween-80): 101 % of control
- T/C (dose: 240.0 mg/kg/injection, schedule: Q01DX005 (ip), vehicle: saline with Tween-80): 96 % of control

SMILES: COc1cc2c[n+](C)c3c4cc(OC)c(OC)cc4c(O)cc3c2cc1OC
- T/C (dose: 50.0 mg/kg/injection, schedule: Q01DX005 (ip), vehicle: Klucel (hydroxypropylcellulose) (HPC)): 99 % of control
- T/C (dose: 100.0 mg/kg/injection, schedule: Q01DX005 (ip), vehicle: Klucel (hydroxypropylcellulose) (HPC)): 97 % of control
- T/C (dose: 200.0 mg/kg/injection, schedule: Q01DX005 (ip), vehicle: Klucel (hydroxypropylcellulose) (HPC)): 99 % of control

SMILES: NC(=S)c1ccc(C=Nc2ccc(C(N)=S)cc2)cc1
- T/C (dose: 100.0 mg/kg/injection, schedule: Q01DX001 (ip), vehicle: Klucel (hydroxypropylcellulose) (HPC)): 87 % of control
- T/C (dose: 200.0 mg/kg/injection, schedule: Q01DX001 (ip), vehicle: Klucel (hydroxypropylcellulose) (HPC)): 91 % of control
- T/C (dose: 400.0 mg/kg/injection, schedule: Q01DX001 (ip), vehicle: Klucel (hydroxypropylcellulose) (HPC)): 88 % of control

SMILES: Cc1ccc(S(=O)(=O)N/N=C2/CCCC(S(=O)(=O)c3ccc(C)cc3)C2)cc1 (stereo unspecified)
- T/C [9]: 111 % of control
- T/C [11]: 98 % of control
- T/C (dose: 100.0 mg/kg/injection, schedule: Q01DX005 (ip), vehicle: saline with Tween-80): 93 % of control

SMILES: O=c1cc2n(c(=O)n1Cc1ccccc1)CCC2
- T/C [8]: 97 % of control
- T/C [9]: 99 % of control
- T/C [11]: 101 % of control

SMILES: C=Cn1c([N+](=O)[O-])cnc1/C=C/c1ccc(C(=O)N(CC)CC)cc1
- T/C (dose: 100.0 mg/kg/injection, schedule: Q04DX002 (ip), vehicle: saline with Tween-80): 99 % of control
- T/C (dose: 200.0 mg/kg/injection, schedule: Q04DX002 (ip), vehicle: saline with Tween-80): 100 % of control
- T/C (dose: 400.0 mg/kg/injection, schedule: Q04DX002 (ip), vehicle: saline with Tween-80): 100 % of control

SMILES: O=C1CCC(=O)S1
- T/C (dose: 12.5 mg/kg/injection, schedule: Q04DX002 (ip), vehicle: saline with Tween-80): 100 % of control
- T/C (dose: 25.0 mg/kg/injection, schedule: Q04DX002 (ip), vehicle: saline with Tween-80): 91 % of control
- T/C (dose: 50.0 mg/kg/injection, schedule: Q04DX002 (ip), vehicle: saline with Tween-80): 91 % of control

SMILES: CCOC(=O)C1OC1(C(F)(F)F)C(F)(F)F (stereo unspecified)
- T/C [3]: 93 % of control
- T/C [4]: 98 % of control
- T/C [5]: 104 % of control

SMILES: COc1ccc(/C(Cc2ccccc2)=N/NS(=O)(=O)c2ccc(C)cc2)cc1
- T/C [6]: 89 % of control
- T/C [7]: 101 % of control
- T/C [1]: 98 % of control

SMILES: CN=P1(NC)NP(=NC)(NC)NP(=NC)(NC)NP(=NC)(NC)N1.[Cl-].[Cl-].[Cl-].[Cl-].[Pt+2] (stereo unspecified)
- T/C (dose: 12.5 mg/kg/injection, schedule: Q04DX003 (ip), vehicle: saline with Tween-80): 102 % of control
- T/C (dose: 25.0 mg/kg/injection, schedule: Q04DX003 (ip), vehicle: saline with Tween-80): 111 % of control
- T/C (dose: 50.0 mg/kg/injection, schedule: Q04DX003 (ip), vehicle: saline with Tween-80): 120 % of control
- T/C (dose: 100.0 mg/kg/injection, schedule: Q04DX003 (ip), vehicle: saline with Tween-80): 109 % of control
